Source: US20240335364A1, “COMPOSITIONS OF DICAFFEOYLQUINIC ACIDS WITH TOCOPHEROL” (SYMRISE AG, priority 2021, published 2024)

Tests used:
[1] = tested on: DEFB1; assay: Modulation of DEFB1 gene expression of keratinocytes (real-time qPCR, RQ); type: cell-based, human; set-up: key: RQ = expression relative to DMSO vehicle control (qPCR); details: nHEK, 24 h
Procedure: (§1) Neonatal human epidermal keratinocytes (nHEK) were cultivated in an EpiLife® medium (Gibco) including an HKGS kit (Gibco) with 5% CO2 at 37° C. in accordance with the supplier's instructions. The cells were treated for 24 hours, with 0.0005% of the different dicaffeoylquinic acids from above dissolved in DMSO and DMSO alone as the vehicle control. Genomic target expression levels in treated cells were measured using a quantitative Real-Time PCR comparison to vehicle control treatment.
(§2) RNA was isolated using Qiagen's RNeasy® Mini Kit. The total RNA concentrations were measured using Eppendorf's μCuvetteG 1.0 and BioPhotometer, by measuring the absorption at 260 nm. Purity control values such as E260/280 and E260/230 were calculated simultaneously. Reverse transcription was performed using the high-capacity RNA-to-cDNA kit of Applied Biosystems, in accordance with the supplier's instructions. Samples were treated in Biometra's PCR Thermocycler. For fast real-time qPCR, the cDNA was diluted with RNase-free water, and the TaqMan™ Fast Universal PCR Master Mix of Applied Biosystems was used. Quantitative real time PCR was performed using the StepOnePlus fast real-time PCR instrument by Applied Biosystems. Analysis was conducted using the StepOne software and […] (normalised to endogenous control […] expression). For upregulations, RQ values ≥2.5 are considered to be relevant.
(§3) Neonatal human epidermal keratinocytes (nHEK) were cultivated as described in Example 1 and treated for 24 hours with 0.0007% of the different monocaffeoylquinic acids. Afterwards fast real-time qPCR was performed as described in above using a customised gene array.
(§4) Neonatal human epidermal keratinocytes (nHEK) were cultivated as described in Example 1 and treated for 24 hours with 4,5-dicaffeoylquinic acid (CAS number 14534-61-3, Phytolab GmbH & Co. KG) and (±)-α-tocopherol (CAS number 10191-41-0, synonym: Synonym: DL-α-Tocopherol, Vitamin E, Sigma-Aldrich, synthetic) alone and in combination. Afterwards fast real-time qPCR was performed as described in above using a customised gene array.
(§5) [formula] • With • A=RQ value by 4,5-dicaffeoylquinic acid at concentration x • B=RQ value by tocopherol at concentration y • C=RQ value by the combination of 4,5-dicaffeoylquinic acid at concentration x/2 and tocopherol at concentration y/2 • D=Factor for 4,5-dicaffeoylquinic acid=>0.5 (due to half concentration tested in the combination) • E=Factor for tocopherol=>0.5 (due to half concentration tested in the combination) • A SI=1 is obtained for additive activity of the two combined components, whereas a SI <1 proves antagonistic activity (observed efficacy is lower than additive) and SI >1 proves synergistic activity (observed efficacy is higher than additive).
(§6) Neonatal human epidermal keratinocytes (nHEK) were cultivated as described above and treated for 24 hours with yarrow extract of example 3 (Achillea millefolium, freeze-dried fresh press juice of flowering aerials, cultivated in Germany) and (±)-α-tocopherol (CAS number 10191-41-0, synonym: Synonym: DL-α-Tocopherol, Vitamin E, Sigma-Aldrich, synthetic) alone and in two combinations. Afterwards fast real-time qPCR was performed as described in above using a customised gene array.
as §6, with “(+)-α-tocopherol” for “(±)-α-tocopherol”, “59-02-9,” for “10191-41-0,”, “D-α-tocopherol,” for “DL-α-Tocopherol,”, “Sigma-Aldrich)” for “Sigma-Aldrich, synthetic)”, “combination.” for “two combinations.”

[2] = tested on: HSPB8; assay: Modulation of HSPB8 gene expression of keratinocytes (real-time qPCR, RQ); type: cell-based, human; set-up: key: RQ: expression relative to DMSO vehicle control (qPCR); details: nHEK, 24 h
Procedure: as §1, §2, §3
(§7) Neonatal human epidermal keratinocytes (nHEK) were cultivated as described in Example 1 and treated for 24 hours with 0.005% of the extract samples. Afterwards fast real-time qPCR was performed as described in above using a customized gene array.
as §4, §5, §6

[3] = tested on: OCLN; assay: Modulation of OCLN gene expression of keratinocytes (real-time qPCR, RQ); type: cell-based, human; set-up: key: RQ: expression relative to DMSO vehicle control (qPCR); details: nHEK, 24 h
Procedure: as §1, §2, §3, §7, §4, §5, §6

[4] = tested on: CRYAB; assay: Modulation of CRYAB gene expression of keratinocytes (real-time qPCR, RQ); type: cell-based, human; set-up: key: relative quantity (RQ) vs DMSO vehicle-treated control; details: nHEK, 24 h
Procedure: as §1, §2, §3, §7, §4, §5
(§8) Neonatal human epidermal keratinocytes (nHEK) were cultivated as described above and treated for 24 hours with 3,5-dicaffeoylquinic acid (CAS number 2450-53-5, Phytolab GmbH & Co. KG) and D-α-tocopherol (CAS number 59-02-9, synonym: (+)-α-tocopherol, Vitamin E, trade name: Copherol® F 1300 C, BTC Europe GmbH) alone and in combination. Afterwards fast real-time qPCR was performed as described in above using a customised gene array.
as §6, with “array. […]” for “array.”

[5] = tested on: CLDN1; assay: Modulation of CLDN1 gene expression of keratinocytes (real-time qPCR, RQ); type: cell-based, human; details: nHEK, 24 h
Procedure: as §1, §2, §3, §7, §4, §5
(§9) Neonatal human epidermal keratinocytes (nHEK) were cultivated as described in Example 1 and treated for 24 hours with 3,4-dicaffeoylquinic acid (CAS number 57378-72-0, Phytolab GmbH & Co. KG) and (+)-α-tocopherol (CAS number 59-02-9, synonym: Synonym: D-α-tocopherol, Vitamin E, Sigma-Aldrich) alone and in combination. Afterwards fast real-time qPCR was performed as described in above using a customised gene array. For upregulations, RQ values ≥2.5 are considered to be relevant.
as §6

[6] = tested on: DSG1; assay: Modulation of DSG1 gene expression of keratinocytes (real-time qPCR, RQ); type: cell-based, human; set-up: key: relative quantity vs DMSO vehicle control (qPCR); details: nHEK, 24 h
Procedure: as §1, §2, §3, §7, §4, §5, §9
as §8, with “array. […]” for “array.”

[7] = tested on: DSC1; assay: Modulation of DSC1 gene expression of keratinocytes (real-time qPCR, RQ); type: cell-based, human; set-up: key: RQ: expression relative to DMSO vehicle control; details: nHEK, 24 h
Procedure: as §1, §2, §3, §7, §4, §5, §9
as §6, with “array. […]” for “array.”

[8] = tested on: HSPB2; assay: Modulation of HSPB2 gene expression of keratinocytes (real-time qPCR, RQ); type: cell-based, human; set-up: key: relative quantity vs DMSO vehicle control (qPCR); details: nHEK, 24 h
Procedure: as §1, §2, §3, §4, §5, §6

[9] = tested on: Neonatal human epidermal keratinocytes (nHEK); assay: Modulation of gene expression of keratinocytes, whole gene array (statements in words); type: cell-based; details: 24 h
Procedure: as §1, §2, §3, §7

[10] = 0.003% tocopherol alone, Example 8
[11] = 0.005% tocopherol alone, Example 7, Table 9
[12] = 0.005% tocopherol alone, Example 7, Table 10

Row | Compound | RQ value DEFB1 ([1]; 0.0005%, Example 1) | RQ value HSPB8 ([2]; 0.0005%, Example 1) | RQ value OCLN ([3]; 0.0005%, Example 1) | RQ value CRYAB ([4]; 0.0005%, Example 1) | RQ value CLDN1 ([5]; 0.0005%, Example 1) | RQ value DSG1 ([6]; 0.0005%, Example 1) | RQ value DSC1 ([7]; 0.0005%, Example 1) | RQ value HSPB2 ([8]; 0.0005%, Example 1) | RQ value DEFB1 ([1]; 0.0007%, Example 2) | RQ value HSPB8 ([2]; 0.0007%, Example 2) | RQ value OCLN ([3]; 0.0007%, Example 2) | RQ value CRYAB ([4]; 0.0007%, Example 2) | RQ value CLDN1 ([5]; 0.0007%, Example 2) | RQ value DSG1 ([6]; 0.0007%, Example 2) | RQ value DSC1 ([7]; 0.0007%, Example 2) | RQ value HSPB2 ([8]; 0.0007%, Example 2) | further results
1 | O=C(/C=C/c1ccc(O)c(O)c1)O[C@@H]1C[C@](OC(=O)/C=C/c2ccc(O)c(O)c2)(C(=O)O)C[C@@H](O)[C@H]1O [1,5-Dicaffeoylquinic acid, 1,5-dicaffeoylquinic acid] | 2.4 | 2.8 | 2.2 | 7.2 | 2.4 | 5.3 | 7.6 | 2.4 | – | – | – | – | – | – | – | – | –
2 | O=C(/C=C/c1ccc(O)c(O)c1)O[C@@H]1[C@H](O)C[C@@](O)(C(=O)O)C[C@H]1OC(=O)/C=C/c1ccc(O)c(O)c1 [3,4-Dicaffeoylquinic acid, 3,4-dicaffeoylquinic acid] | 3.5 | 7.3 | 4.2 | 18.7 | 5.1 | 14.9 | 25.8 | 4.9 | – | – | – | – | – | – | – | – | RQ value CLDN1 ([5]; 0.0006% alone, Example 5): 4.2; RQ value DSG1 ([6]; 0.0006% alone, Example 5): 2.1; RQ value DSC1 ([7]; 0.0006% alone, Example 5): 6.2
3 | O=C(/C=C/c1ccc(O)c(O)c1)O[C@@H]1CC(O)(C(=O)O)C[C@@H](OC(=O)/C=C/c2ccc(O)c(O)c2)C1O (stereo partly shown) [3,5-Dicaffeoylquinic acid, 3,5-dicaffeoylquinic acid] | 3.4 | 6.2 | 3.5 | 16.5 | 4.7 | 12.2 | 20.5 | 6.1 | – | – | – | – | – | – | – | – | RQ value CRYAB ([4]; 0.0002% alone, Example 6): 2.7; RQ value DSG1 ([6]; 0.0002% alone, Example 6): 2.4
4 | O=C(/C=C/c1ccc(O)c(O)c1)O[C@@H]1C[C@](O)(C(=O)O)C[C@@H](O)[C@H]1O [3-caffeoyl-quinic acid, 3-Caffeoylquinic acid] | – | – | – | – | – | – | – | – | 1.1 | 0.8 | 1.0 | 0.9 | 0.8 | 0.7 | 1.0 | 0.8 | –
5 | O=C(/C=C/c1ccc(O)c(O)c1)O[C@H]1[C@H](O)C[C@](O)(C(=O)O)C[C@H]1OC(=O)/C=C/c1ccc(O)c(O)c1 [4,5-Dicaffeoylquinic acid, 4,5-dicaffeoylquinic acid] | 3.2 | 4.2 | 2.4 | 13.8 | 3.5 | 10.6 | 18.1 | 4.3 | – | – | – | – | – | – | – | – | RQ value DEFB1 ([1]; 0.0007% alone, Example 4): 4.3; RQ value HSPB8 ([2]; 0.0007% alone, Example 4): 6.2; RQ value OCLN ([3]; 0.0007% alone, Example 4): 3.4; RQ value CRYAB ([4]; 0.0007% alone, Example 4): 21.1; RQ value CLDN1 ([5]; 0.0007% alone, Example 4): 2.4; RQ value DSG1 ([6]; 0.0007% alone, Example 4): 11.1; RQ value DSC1 ([7]; 0.0007% alone, Example 4): 25.0; RQ value HSPB2 ([8]; 0.0007% alone, Example 4): 5.7
6 | O=C(/C=C/c1ccc(O)c(O)c1)O[C@H]1[C@H](O)C[C@](O)(C(=O)O)C[C@H]1O [4-caffeoyl-quinic acid, 4-caffeoylquinic acid] | – | – | – | – | – | – | – | – | 1.9 | 1.0 | 1.0 | 1.9 | 0.8 | 1.9 | 2.2 | 2.2 | –
7 | O=C(/C=C/c1ccc(O)c(O)c1)O[C@@H]1C[C@@](O)(C(=O)O)C[C@@H](O)[C@@H]1O [5-caffeoyl-quinic acid, 5-caffeoylquinic acid] | – | – | – | – | – | – | – | – | 0.7 | 0.6 | 0.8 | 0.7 | 0.8 | 0.5 | 0.7 | 1.0 | –
8 | Cc1c(C)c2c(c(C)c1O)CC[C@@](C)(CCC[C@H](C)CCC[C@H](C)CCCC(C)C)O2 [(+)-alpha-tocopherol, (+)-α-tocopherol] | – | – | – | – | – | – | – | – | – | – | – | – | – | – | – | – | RQ value DEFB1 [1, 10]: 0.8; RQ value CRYAB [4, 10]: 0.7; RQ value CRYAB ([4]; 0.01% alone, Example 6): 0.5; RQ value CLDN1 ([5]; 0.003% alone, Example 5): 0.4; RQ value DSG1 ([6]; 0.003% alone, Example 5): 0.4; RQ value DSG1 [6, 10]: 0.4; RQ value DSG1 ([6]; 0.01% alone, Example 6): 0.7; RQ value DSC1 ([7]; 0.003% alone, Example 5): 0.6; RQ value DSC1 [7, 10]: 0.6; relevant modulation of the selected genes (RQ ≥2.5) ([9]; tocopherol alone at 0.003%): does not relevantly modulate any of the selected genes; relevant modulation of the selected genes (RQ ≥2.5) ([9]; tocopherol alone at 0.01%): does not relevantly modulate any of the selected genes
9 | (±)-α-tocopherol [(±)-alpha-tocopherol] | – | – | – | – | – | – | – | – | – | – | – | – | – | – | – | – | RQ value DEFB1 ([1]; 0.005% alone, Example 4): 1.3; RQ value DEFB1 [1, 11]: 1.7; RQ value HSPB8 ([2]; 0.005% alone, Example 4): 1.0; RQ value HSPB8 [2, 11]: 1.2; RQ value HSPB8 [2, 12]: 2.3; RQ value OCLN ([3]; 0.005% alone, Example 4): 1.7; RQ value OCLN [3, 11]: 2.4; RQ value CRYAB ([4]; 0.005% alone, Example 4): 1.4; RQ value CRYAB [4, 11]: 1.3; RQ value CLDN1 ([5]; 0.005% alone, Example 4): 1.2; RQ value CLDN1 [5, 11]: 1.3; RQ value CLDN1 [5, 12]: 1.8; RQ value DSG1 ([6]; 0.005% alone, Example 4): 1.3; RQ value DSG1 [6, 11]: 1.4; RQ value DSG1 [6, 12]: 2.0; RQ value DSC1 ([7]; 0.005% alone, Example 4): 1.1; RQ value DSC1 [7, 11]: 1.3; RQ value DSC1 [7, 12]: 1.9; relevant modulation of the selected genes (RQ ≥2.5) ([9]; tocopherol alone at 0.005%): does not relevantly modulate any of the selected genes; RQ value HSPB2 ([8]; 0.005% alone, Example 4): 1.4
